# Data from patent publication US7208154B2, “Methods and compositions for the treatment of MHC-associated conditions” (Regents of the University of Michigan, priority 2002, dated 2007).
# Read-outs that look alike come from different tables or passages of the source.
# Columns and labels:
# [1] = target: T1, calreticulin (Homo sapiens, UniProt P27797); experiment: Surface plasmon resonance, calreticulin immobilized on CM5 chip, pentapeptide binding; parameters: GST (cleaved yes); made in house; host or cells: E. coli (strain provided by Dr. Michalak); conditions: Biacore, 25° C., peptides 25–180 μM
# T1 sequence (P27797 18-417): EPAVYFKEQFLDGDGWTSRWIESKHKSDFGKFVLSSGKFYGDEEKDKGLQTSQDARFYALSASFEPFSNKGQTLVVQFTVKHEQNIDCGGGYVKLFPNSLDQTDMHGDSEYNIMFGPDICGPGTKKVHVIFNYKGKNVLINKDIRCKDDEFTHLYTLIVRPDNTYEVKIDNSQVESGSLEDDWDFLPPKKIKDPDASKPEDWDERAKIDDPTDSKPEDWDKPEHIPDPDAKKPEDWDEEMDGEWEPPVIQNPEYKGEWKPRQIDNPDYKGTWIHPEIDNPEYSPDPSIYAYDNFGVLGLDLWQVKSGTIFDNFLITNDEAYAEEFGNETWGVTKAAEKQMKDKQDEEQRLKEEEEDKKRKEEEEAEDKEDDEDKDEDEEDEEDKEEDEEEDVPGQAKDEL
# Procedure: The E. coli strain expressing GST fusion Calreticulin was kindly provided by Dr. Michalak [Baksh S et al. Protein Expr Purif., 3, 322–331, (1992)]. GST-Calreticulin was purified according to the manual of GST Gene Fusion System from Pharmacia. Factor Xa was used to liberate GST from calreticulin. In an additional step the column was treated with mono-Q to achieve >90% purity of calreticulin (MW=60 kD).
# Prior to use, biosensor chips CM5 were docked into a Biacore® 2000 and preconditioned in water at 100 μl/min by applying two consecutive 20-μl pulses of 50 mM NaOH, then 10 mM HCl, and finally 0.1% SDS. Calreticulin was immobilized on CM5 surface by standard primary amine coupling [Lofas S et al. Biosensors & Bioelectronics, 10: 813–822, (1995), Johnsson B et al. J Mol Recognit., 8: 125–131, (1995), Karlsson R et al. J. Immunol. Methods, 200:121–133. (1997)]. Immobilizations were conducted at 25° C. in HBS-EP (10 mM HEPES, pH7.4, 150 mM NaCl, 1 mM EDTA, 0.005% Surfactant P-20), with a flow of 10 μl/min. […]
# Shared epitope-expressing peptides potently bind to, and trigger, signaling through calreticulin. […] However, when calreticulin binding activities of the panel of pentapeptides were determined, one conspicuous exception was discovered, that is DKCLA FIG. 15 peptide #7 (Q70D).
# [2] = tested on: human fibroblastoid line M1 cells; conditions: M1 cells preincubated overnight with 50 μg/ml synthetic pentapeptide
Binding to immobilized calreticulin [1],Substance,Inhibition of cAMP-dependent (2CA-induced) DNA repair induction / genoprotective pathway by pentapeptide [2],Inhibition of cAMP-dependent (2CA-induced) DNA repair induction / genoprotective pathway by pentapeptide ([2]; listed as #7)
did not bind to calreticulin,Gln Lys Arg Ala Glu (QKRAE),failed to do so,–
bind very strongly to calreticulin,DKCLA [Asp Lys Cys Leu Ala],biologically inactive,failed to do so
